Assay results reported in ChEMBL document CHEMBL5608113, “Targeting of CAF-induced therapy resistance in CRC organoid-stroma co-cultures” (2024).
Square brackets hold non-standard residues; d marks the D form. Peptide text beside a SMILES is read from it. Arg(Me) = CNC(=N)NCCC[C@H](N)C(=O)O; d3Pal = N[C@H](Cc1cccnc1)C(=O)O; d4Pal = N[C@H](Cc1ccncc1)C(=O)O; azaGly = NNC(=O)O

What was measured:
Type in all cases: functional, Homo sapiens
Settings in all cases: Homo sapiens, Concentration 10 uM; read-out: Cell Viability
[1] = test system: Colon cancer organoid; assay: Targeting of F14 CAF-induced therapy resistance in O14 CRC organoid-stroma co-culture. Cell viability is reported without Gefitinib.
[2] = test system: Colon cancer organoid; assay: Targeting of F14 CAF-induced therapy resistance in O23 CRC organoid-stroma co-culture. Cell viability is reported without Gefitinib.
[3] = test system: Colon cancer organoid; assay: Targeting of F14 CAF-induced therapy resistance in O14 CRC organoid-stroma co-culture. Cell viability is reported with Gefitinib.
[4] = test system: Colon cancer organoid; assay: Targeting of F14 CAF-induced therapy resistance in O23 CRC organoid-stroma co-culture. Cell viability is reported with SN-38.
[5] = test system: Colon cancer organoid; assay: Targeting of F14 CAF-induced therapy resistance in O23 CRC organoid-stroma co-culture. Cell viability is reported with Gefitinib.

Structure (SMILES) | viability at 10 µM [1] [%] | viability at 10 µM [2] [%] | viability at 10 µM [3] [%] | viability at 10 µM [4] [%] | viability at 10 µM [5] [%]
CCN(CCO)CCCOc1ccc2c(Nc3cc(CC(=O)Nc4cccc(F)c4)[nH]n3)ncnc2c1 [DEFOSBARASERTIB] | 9.69 | 62.1 | 3.88 | 28.3 | 19.2
Cn1c(C2(NC(=O)c3ccc4c(C5CCCC5)c(-c5ncc(Br)cn5)n(C)c4c3)CCC2)nc2ccc(/C=C/C(=O)O)cc21 [DELEOBUVIR] | 126 | 112 | 50.5 | 60.4 | 94.6
C[C@H](NC(=O)Nc1cc2[nH]ncc2c(CO)n1)c1ccccn1 [ERKi-NC] | 71.3 | 94.9 | 21.8 | 62.2 | 40.9
C[C@@H](NC(=O)Nc1cc2[nH]ncc2c(CO)n1)c1ccccc1 [ERKi] | 49.2 | 14.3 | 10.3 | 14.3 | 4.5
CN(C(=O)c1ccccc1)c1cc(N(C)c2ccc3c(c2)CCc2ccc(C(=O)NCCN4CCOCC4)cc2C3=O)ccc1F [FM-743] | 142 | 141 | 36.5 | 59.3 | 83.7
O=C(NCCN1CCOCC1)c1ccc2c(c1)C(=O)c1ccc(Nc3ccc(F)c(NC(=O)c4ccccc4)c3)cc1CC2 [FS-694] | 156 | 108 | 28.9 | 54 | 40
CC(C)(C)OC(=O)N1CCCC1CNC1CCC(c2cc(F)ccc2F)(S(=O)(=O)c2ccc(Cl)cc2)CC1 (stereo not given) [GSI-NC] | 74.5 | 109 | 52.1 | 78.6 | 42.1
CC(=O)Nc1c(F)cc(C(=O)N[C@H]2CC[C@H](O)CC2)cc1O[C@@H](C)c1ccccc1 [GSK046] | 121 | 100 | 25.9 | 48.8 | 55.8
CNC(=O)c1cc(C(=O)NC2CC2)cn(Cc2ccccc2)c1=O [GSK620] | 116 | 111 | 24.6 | 66.8 | 60.9
COCc1nc2cnc3cc(-c4c(C)noc4C)c(OC[C@H]4CCNC4)cc3c2n1[C@H](C)c1ccccc1 [GSK778] | 40 | 95.6 | 8.04 | 48.8 | 47.2
Cc1cc2c(-c3ccco3)cnc(N[C@@H]3CCN(C)C[C@H]3C(=O)NC3CCCCC3)c2[nH]c1=O [GSK789] | 84.8 | 72.5 | 26.6 | 38.8 | 29.8
Cc1cc2c(-c3ccco3)cnc(N[C@H]3CCN(C)C[C@@H]3C(=O)NC3CCCCC3)c2[nH]c1=O [GSK791] | 111 | 76 | 26.2 | 81.3 | 50
CNC(=O)c1cc(C(=O)N[C@H]2[C@@H]3COC[C@@H]32)cc2c1O[C@@H](CF)[C@@H]2c1ccccc1 [GSK943] | 75.9 | 67.7 | 30.9 | 64.3 | 76.1
CNC(=O)c1cc(C(=O)N[C@H]2[C@@H]3COC[C@@H]32)cc2c1O[C@H](CF)[C@H]2c1ccccc1 [GSK973] | 99.3 | 102 | 23.6 | 46.5 | 58.5
O=C(O)c1ccc(-c2c[nH]c3ncc(-c4ccccc4)cc23)cc1C1CCCC1 [GSK-650394] | 104 | 136 | 65 | 82.6 | 93.5
Cc1c(Oc2ccc(F)cc2)c(OC(C)C)nn1-c1ccc(C2CC2)cn1 [IPP/CNRS-A019] | 84.4 | 147 | 50.2 | 75.2 | 86.4
COCCc1ccc(-c2c(C)nc3c(N4CCOCC4)ccnn23)cn1 [JNJ-42396302] | 122 | 143 | 65.9 | 70.4 | 97
COc1nc2ccc([C@@](O)(c3ccccc3)C3CCN(C(C)=O)CC3)cc2c(Cl)c1Cc1ccc(-n2cccn2)cc1 [JNJ-54119936] | 146 | 106 | 45.8 | 62.6 | 64.3
CC(=O)Nc1ncc(CN2CCC[C@H](Cc3cc(C)nc(C)c3)C2)s1 [JNJ-65355394] | 106 | 103 | 47.9 | 44.3 | 88.8
CC(=O)Nc1nc(CN2CCC[C@H](Cc3cc(C)nc(C)c3)C2)cs1 [JNJ-73924149] | 109 | 125 | 46.2 | 79.9 | 79.3
N#CN1CC[C@@H](C(=O)Nc2nc3c(s2)CN(C(=O)CN=[N+]=[N-])CC3)C1 [JYQ88] | 137 | 76.5 | 34.4 | 78.4 | 45.5
CNC(=N)NCCC[C@H](NC(=O)[C@H](CC(C)C)NC(=O)NNC(=O)[C@H](Cc1ccccc1)NC(=O)[C@H](CO)NC(=O)[C@H](CC(N)=O)NC(=O)[C@@H](Cc1ccncc1)NC(=O)[C@H](N)Cc1ccc(O)cc1)C(=O)N[C@@H](Cc1ccccc1)C(N)=O [KISS1-305] (H-[dY][d4Pal]NSF[azaGly]L[Arg(Me)]F-NH2) | 119 | 97.6 | 52.8 | 61.3 | 66.9
CNC(=N)NCCC[C@H](NC(=O)[C@H](CC(C)C)NC(=O)NNC(=O)[C@H](Cc1ccccc1)NC(=O)[C@H](CO)NC(=O)[C@H](CC(N)=O)NC(=O)[C@@H](Cc1cccnc1)NC(=O)[C@H](N)Cc1ccc(O)cc1)C(=O)NCC(N)=O [KISS1-543] (H-[dY][d3Pal]NSF[azaGly]L[Arg(Me)]G-NH2) | 103 | 93.8 | 62.9 | 71.6 | 49.7
CCS(=O)(=O)Nc1ccc(Oc2ccc(F)cc2F)c(-c2cn(C)c(=O)c3[nH]ccc23)c1 [MIVEBRESIB] | 5.68 | 37.5 | 1.95 | 25.4 | 29.2
CN([C@@H]1CCc2c(CC(=O)O)c3ccccc3n2C1)S(=O)(=O)c1ccc(F)cc1 [MK-7246] | 88.6 | 79.7 | 43.4 | 76.2 | 46.3
C[C@@H]1CN(c2cc(-c3nn(C)c4ccc(OC5(C)CC5)cc34)ncn2)C[C@H](C)O1 [MLi-2-NC] | 77.2 | 107 | 28.6 | 62.4 | 40.9
